Active and inactive are the calls of the source. The calls are words filed in the database; no cut-off is given here.
Assays:
[1] = test system: Radical scavenging activity; test: Antioxidant activity assessed as DPPH radical scavenging activity at 10 ug after 20 min; type: functional
[2] = Induction of DNA cleavage at 100 ug after 2 hr by electrophoresis relative to control
[3] = biological target: T1, Pancreatic alpha-amylase (Homo sapiens) (UniProt P04746); test: Activity of alpha amylase (unknown origin) at 1 mg/ml after 10 min relative to control
T1 sequence (whole entry): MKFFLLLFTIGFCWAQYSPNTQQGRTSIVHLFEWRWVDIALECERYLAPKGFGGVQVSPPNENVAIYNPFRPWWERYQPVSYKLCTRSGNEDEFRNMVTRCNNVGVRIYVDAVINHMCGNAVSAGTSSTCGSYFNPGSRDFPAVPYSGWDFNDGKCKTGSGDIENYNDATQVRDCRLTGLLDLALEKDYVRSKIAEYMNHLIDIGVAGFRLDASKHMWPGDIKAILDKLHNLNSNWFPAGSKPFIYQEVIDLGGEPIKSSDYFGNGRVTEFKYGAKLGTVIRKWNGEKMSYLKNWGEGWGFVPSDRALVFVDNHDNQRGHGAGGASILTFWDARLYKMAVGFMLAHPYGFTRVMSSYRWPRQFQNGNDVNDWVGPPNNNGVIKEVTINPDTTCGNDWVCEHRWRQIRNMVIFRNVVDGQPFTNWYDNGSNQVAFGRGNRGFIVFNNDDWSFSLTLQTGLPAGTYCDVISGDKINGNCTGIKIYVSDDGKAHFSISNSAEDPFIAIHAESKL

[4] = test system: Radical scavenging activity; test: Antioxidant activity assessed as DPPH radical scavenging activity at 50 ug after 20 min; type: functional
[5] = test system: Radical scavenging activity; test: Antioxidant activity assessed as DPPH radical scavenging activity at 100 ug after 20 min; type: functional

SMILES | Activity [1] | Activity [2] | Activity [3] | Activity [4] | Activity [5]
CC(=O)N1N=C(c2ccc(-n3nc(C)n(N)c3=O)cc2)CC1c1ccc(Cl)cc1 (stereo not given) | 21.7% | Active | 126% | 69.9% | 81.5%
CC(=O)N1N=C(c2ccc(-n3nc(C)n(N)c3=O)cc2)CC1c1cccc(Cl)c1 (stereo not given) | 15.2% | Active | 96.5% | 63.8% | 73.8%
CC(=O)N1N=C(c2ccc(-n3nc(C)n(N)c3=O)cc2)CC1c1ccc(C)cc1 (stereo not given) | 23% | Active | 96.5% | 70.1% | 82.5%
CC(=O)N1N=C(c2ccc(-n3nc(C)n(N)c3=O)cc2)CC1c1ccccc1 (stereo not given) | 24.7% | Active | 129% | 30.2% | 56.1%
CC(=O)N1N=C(c2ccc(-n3nc(C)n(N)c3=O)cc2)CC1c1ccc(O)cc1 (stereo not given) | 3.08% | Active | 76.7% | 9.03% | 16.9%
CC(=O)N1N=C(c2ccc(-n3nc(C)n(N)c3=O)cc2)CC1c1ccccc1Cl (stereo not given) | 20% | Active | 76.7% | 67.8% | 78.4%
COc1ccc(C2CC(c3ccc(-n4nc(C)n(N)c4=O)cc3)=NN2C(C)=O)cc1 (stereo not given) | 0.6% | Active | 96.5% | 2.28% | 2.4%
COc1ccc(C2CC(c3ccc(-n4nc(C)n(N)c4=O)cc3)=NN2C(C)=O)cc1OC (stereo not given) | 0.48% | Active | 64% | 1.18% | 1.67%
CC(=O)N1N=C(c2ccc(-n3nc(C)n(N)c3=O)cc2)CC1c1ccc([N+](=O)[O-])cc1 (stereo not given) | 0.4% | Active | 102% | 1.09% | 1.49%
